Laboratory results published in patent publication US11690850B2, “Inhibitors of receptor interacting protein kinase I for the treatment of disease” (Board of Regents, The University of Texas System, priority 2019, dated 2023).
“And” between values parts separate entries of the source, which are not always exact repeats. Identical values can stand only once.

Target: RIPK1 (Homo sapiens (Human), UniProt Q13546)
Assay: ADP-Glo Kinase Assay
Type: biochemical
Conditions: 5 nM RIPK1 protein, 50 μM ATP, 6 hr reaction, average value across multiple runs
Description: In order to measure RIPK1 activity the ADP-Glo kinase assay (Promega, Catalog #V7002) was used to measure the conversion of ATP to ADP. This enzymatic assay was performed in a 384-well white, Optiplate (Perkin Elmer, Catalog #6007299) with assay buffer consisting of 50 mM HEPES pH 7.5 (Gibco, Catalog #15630-080), 50 mM NaCl (Teknova, Catalog #S0252), 30 mM MgCl2 (Ambion, Catalog #AM9530G), 1 mM DTT (Santa Cruz Biotechnology, Catalog #sc-29089), 0.05% BSA (Sigma, Catalog #A3059-50G) and 0.02% CHAPS (Sigma, Catalog #C5070-5G). Stock solutions of the test compounds were prepared in 100% DMSO (Sigma, Catalog #D2650) and serially diluted 1:3 using 100% DMSO. Compounds were additionally diluted 1:40 in assay buffer, and 2 μL/well were transferred to the assay plate. 4 μL/well (final concentration of 5 nM) of RIPK1 protein (SignalChem, Catalog #R07-11G-05) diluted in assay buffer and added to the assay plate followed by a 10 minute preincutation at room temperature. 4 μL/well of ATP (Promega, Catalog #V7002) (final concentration of 50 μM) diluted in assay buffer were then added to the assay plate followed by a 6 hr reaction time. Final concentrations of RIPK1 and ATP refer to a 10 μL volume. Luminescence was measured using a BioTek Synergy™ NEO plate reader. IC50 values were calculated using a four-parameter logistic curve fit using Genedata Screener software. Results are shown below in Table 4, where the average value across multiple runs is given.

RIPK1, sequence (Q13546 1-327): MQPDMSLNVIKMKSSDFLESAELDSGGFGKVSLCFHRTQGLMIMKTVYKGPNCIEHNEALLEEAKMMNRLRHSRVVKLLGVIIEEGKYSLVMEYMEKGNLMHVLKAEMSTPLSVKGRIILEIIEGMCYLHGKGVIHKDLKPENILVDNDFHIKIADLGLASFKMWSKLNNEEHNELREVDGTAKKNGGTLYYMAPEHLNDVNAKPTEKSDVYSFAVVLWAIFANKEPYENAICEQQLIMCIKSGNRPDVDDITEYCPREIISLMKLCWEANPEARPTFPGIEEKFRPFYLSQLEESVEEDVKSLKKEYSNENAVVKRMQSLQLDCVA

| Structure (SMILES) | IC50 |
| --- | --- |
| Cc1ccc(NC(=O)c2nn(-c3ccccc3)c(C)cc2=O)cc1 [Example 97, 6-methyl-4-oxo-1-phenyl-N-(p-tolyl)-1,4-dihydropyridazine-3-carboxamide] | 11.6 µM |
| Cc1nn(C)c(C)c1NC(=O)c1nn(-c2ccccc2)c(C)cc1=O [Example 14, 6-methyl-4-oxo-1-phenyl-N-(1,3,5-trimethyl-1H-pyrazol-4-yl)-1,4-dihydropyridazine-3-carboxamide] | 4.61 µM |
| Cc1cc(=O)c(C(=O)NC(C)C2CC2)nn1-c1ccccc1 (stereo not shown) [Example 96, N-(1-cyclopropylethyl)-6-methyl-4-oxo-1-phenyl-1,4-dihydropyridazine-3-carboxamide] | 6.49 µM |
| Cc1cc(=O)c(C(=O)Nc2ccccn2)nn1-c1ccc(Cl)cc1 [Example 103, 1-(4-chlorophenyl)-6-methyl-4-oxo-N-(pyridin-2-yl)-1,4-dihydropyridazine-3-carboxamide] | 5 µM |
| Cc1cc(=O)c(C(=O)Nc2c3c(nc4ccccc24)CCCC3)nn1-c1ccccc1 [Example 23, 6-methyl-4-oxo-1-phenyl-N-(1,2,3,4-tetrahydroacridin-9-yl)-1,4-dihydropyridazine-3-carboxamide] | 1.14 µM |
| Cc1cccc(C(F)(F)F)c1NC(=O)c1nn(-c2ccccc2)c(C)cc1=O [Example 29, 6-methyl-N-(2-methyl-6-(trifluoromethyl)phenyl)-4-oxo-1-phenyl-1,4-dihydropyridazine-3-carboxamide] | 1.15 µM |
| Cc1noc(C2CC2)c1NC(=O)c1nn(-c2ccccc2)c(C)cc1=O [Example 112, N-(5-cyclopropyl-3-methylisoxazol-4-yl)-6-methyl-4-oxo-1-phenyl-1,4-dihydropyridazine-3-carboxamide] | 0.791 µM |
| Cc1cc(=O)c(C(=O)NC2CC2)nn1-c1ccccc1 [Example 91, N-cyclopropyl-6-methyl-4-oxo-1-phenyl-1,4-dihydropyridazine-3-carboxamide] | 5.31 µM |
| Cc1cc(=O)c(C(=O)Nc2cncc(Cl)c2)nn1-c1ccccc1 [Example 10, N-(5-chloropyridin-3-yl)-6-methyl-4-oxo-1-phenyl-1,4-dihydropyridazine-3-carboxamide] | 0.39 µM |
| Cc1cc(=O)c(C(=O)NC(C)(C)C)nn1-c1ccccc1 [Example 85, N-(tert-butyl)-6-methyl-4-oxo-1-phenyl-1,4-dihydropyridazine-3-carboxamide] | 38.8 µM |
| Cc1ncnc(C)c1NC(=O)c1nn(-c2ccccc2)c(C)cc1=O [Example 25, N-(4,6-dimethylpyrimidin-5-yl)-6-methyl-4-oxo-1-phenyl-1,4-dihydropyridazine-3-carboxamide] | 3.87 µM |
| Cc1cc(=O)c(C(=O)Nc2ccn3nccc3c2)nn1-c1ccccc1 [Example 11, 6-methyl-4-oxo-1-phenyl-N-(pyrazolo[1,5-a]pyridin-5-yl)-1,4-dihydropyridazine-3-carboxamide] | 15.4 µM |
| Cc1cccc(C)c1NC(=O)c1nn(-c2ccccc2)c(C)cc1=O [Example 22, N-(2,6-dimethylphenyl)-6-methyl-4-oxo-1-phenyl-1,4-dihydropyridazine-3-carboxamide] | 1.5 µM |
| Cc1cc(NC(=O)c2nn(-c3ccccc3)c(C)cc2=O)ncn1 [Example 15, 6-methyl-N-(6-methylpyrimidin-4-yl)-4-oxo-1-phenyl-1,4-dihydropyridazine-3-carboxamide] | 13.6 µM |
| Cc1cc(=O)c(C(=O)Nc2ccc(Cl)cn2)nn1-c1ccccc1F [Example 100, N-(5-chloropyridin-2-yl)-1-(2-fluorophenyl)-6-methyl-4-oxo-1,4-dihydropyridazine-3-carboxamide] | 43.8 µM |
| Cc1cc(=O)c(C(=O)Nc2ccc(F)cc2)nn1-c1ccccc1 [Example 109, N-(4-fluorophenyl)-6-methyl-4-oxo-1-phenyl-1,4-dihydropyridazine-3-carboxamide] | 28.1 µM |

Results, then the compound that gave them:

| IC50 | Structure (SMILES) |
| --- | --- |
| 17.6 µM | Cc1nocc1NC(=O)c1nn(-c2ccccc2)c(C)cc1=O [Example 86, 6-methyl-N-(3-methylisoxazol-4-yl)-4-oxo-1-phenyl-1,4-dihydropyridazine-3-carboxamide] |
| 8.52 µM and 17.4 µM | Cc1cc(=O)c(C(=O)Nc2cnns2)nn1-c1ccccc1 [Example 116, 6-methyl-4-oxo-1-phenyl-N-(1,2,3-thiadiazol-5-yl)-1,4-dihydropyridazine-3-carboxamide] |
| 4.4 µM | Cc1noc(C)c1NC(=O)c1nn(-c2ccccc2)c(C)cc1=O [Example 16, N-(3,5-dimethylisoxazol-4-yl)-6-methyl-4-oxo-1-phenyl-1,4-dihydropyridazine-3-carboxamide] |
| 5.6 µM and 7.5 µM | Cc1ccnc(NC(=O)c2nn(-c3ccccc3)c(C)cc2=O)c1 [Example 114, 6-methyl-N-(4-methylpyridin-2-yl)-4-oxo-1-phenyl-1,4-dihydropyridazine-3-carboxamide] |
| 1.6 µM | Cc1cc(=O)c(C(=O)Nc2ccccc2)nn1-c1cccc(Cl)c1F [Example 7, 1-(3-chloro-2-fluorophenyl)-6-methyl-4-oxo-N-phenyl-1,4-dihydropyridazine-3-carboxamide] |
| 0.282 µM | Cc1cc(=O)c(C(=O)Nc2cccc(F)c2)nn1-c1ccccc1 [Example 93, N-(3-fluorophenyl)-6-methyl-4-oxo-1-phenyl-1,4-dihydropyridazine-3-carboxamide] |
| 33.3 µM | Cc1cc(=O)c(C(=O)Nc2nc(C(F)(F)F)c(Br)s2)nn1-c1ccccc1 [Example 84, N-(5-bromo-4-(trifluoromethyl)thiazol-2-yl)-6-methyl-4-oxo-1-phenyl-1,4-dihydropyridazine-3-carboxamide] |
| 2.68 µM | Cc1cccc(C(C)(C)C)c1NC(=O)c1nn(-c2ccccc2)c(C)cc1=O [Example 28, N-(2-(tert-butyl)-6-methylphenyl)-6-methyl-4-oxo-1-phenyl-1,4-dihydropyridazine-3-carboxamide] |
| 39.1 µM | Cc1cc(NC(=O)c2nn(-c3ccccc3)c(C)cc2=O)sn1 [Example 111, 6-methyl-N-(3-methylisothiazol-5-yl)-4-oxo-1-phenyl-1,4-dihydropyridazine-3-carboxamide] |
| 29.5 µM | Cc1cc(=O)c(C(=O)N2CCC(Oc3ccccn3)C2)nn1-c1ccccc1 (stereo not shown) [Example 113, 6-methyl-1-phenyl-3-(3-(pyridin-2-yloxy)pyrrolidine-1-carbonyl)pyridazin-4(1H)-one] |
| 20.8 µM | Cc1cc(C)c2nc(NC(=O)c3nn(-c4ccccc4)c(C)cc3=O)sc2c1 [Example 87, N-(4,6-dimethylbenzo[d]thiazol-2-yl)-6-methyl-4-oxo-1-phenyl-1,4-dihydropyridazine-3-carboxamide] |
| 20.2 µM | Cc1cccc(NC(=O)c2nn(-c3ccccc3F)c(C)cc2=O)c1 [Example 107, 1-(2-fluorophenyl)-6-methyl-4-oxo-N-(m-tolyl)-1,4-dihydropyridazine-3-carboxamide] |
| 4.46 µM | Cc1nccc(NC(=O)c2nn(-c3ccccc3)c(C)cc2=O)n1 [Example 20, 6-methyl-N-(2-methylpyrimidin-4-yl)-4-oxo-1-phenyl-1,4-dihydropyridazine-3-carboxamide] |
| 3.49 µM | Cc1cccc(NC(=O)c2nn(-c3ccccc3)c(C)cc2=O)n1 [Example 99, 6-methyl-N-(6-methylpyridin-2-yl)-4-oxo-1-phenyl-1,4-dihydropyridazine-3-carboxamide] |
| 1.44 µM | CN1C(=O)C(NC(=O)c2nn(-c3ccccc3)c(CCl)c(Cl)c2=O)CCc2cc(Cl)ccc21 (stereo not shown) [Example 46, 5-chloro-N-(7-chloro-1-methyl-2-oxo-2,3,4,5-tetrahydro-1H-benzo[b]azepin-3-yl)-6-(chloromethyl)-4-oxo-1-phenyl-1,4-dihydropyridazine-3-carboxamide] |
| 1.46 µM | Cc1cc(=O)c(C(=O)Nc2c(F)cccc2C(C)C)nn1-c1ccccc1 [Example 27, N-(2-fluoro-6-isopropylphenyl)-6-methyl-4-oxo-1-phenyl-1,4-dihydropyridazine-3-carboxamide] |
| 2.37 µM | Cc1cc(=O)c(C(=O)Nc2ccccn2)nn1-c1ccccc1Cl [Example 102, 1-(2-chlorophenyl)-6-methyl-4-oxo-N-(pyridin-2-yl)-1,4-dihydropyridazine-3-carboxamide] |
| 0.636 µM | Cc1cc(=O)c(C(=O)Nc2ccc(C#N)s2)nn1-c1ccccc1 [Example 21, N-(5-cyanothiophen-2-yl)-6-methyl-4-oxo-1-phenyl-1,4-dihydropyridazine-3-carboxamide] |
| 8.25 µM | Cc1cc(=O)c(C(=O)NCC2CCC2)nn1-c1ccccc1 [Example 104, N-(cyclobutylmethyl)-6-methyl-4-oxo-1-phenyl-1,4-dihydropyridazine-3-carboxamide] |
| 1.18 µM | Cc1cc(=O)c(C(=O)Nc2cc(Cl)c3ncsc3c2)nn1-c1ccccc1 [Example 12, N-(4-chlorobenzo[d]thiazol-6-yl)-6-methyl-4-oxo-1-phenyl-1,4-dihydropyridazine-3-carboxamide] |
| 41.9 µM | Cc1cc(=O)c(C(=O)Nc2c(C(C)C)n[nH]c2C(C)C)nn1-c1ccccc1 [Example 90, N-(3,5-diisopropyl-1H-pyrazol-4-yl)-6-methyl-4-oxo-1-phenyl-1,4-dihydropyridazine-3-carboxamide] |
